The record followed here is patent US7576099B2, “Amide derivatives as ion-channel ligands and pharmaceutical compositions and methods of using the same” (Renovis, Inc., priority 2005, dated 2009).

The target of data set [1] is T1, VR1 (Homo sapiens, UniProt Q8NER1). As to the kind of experiment: Acid stimulation assay (FDSS 6000, intracellular calcium). It is filed as cell-based. Further details: host or cells: only 'the cell suspension' is mentioned. The following applies: final assay buffer pH5.8, 15 minutes pre-incubation. How it is done: The Acid-induced changes in the intracellular calcium concentration were monitored using FDSS 6000 (Hamamatsu Photonics, Japan), a fluorometric imaging system. The cell suspension in resting buffer (HBSS supplemented with 10 mM HEPES, pH 7.4) was pre-incubated with varying concentrations of the test compounds or resting buffer (buffer control) for 15 minutes at room temperature under dark conditions. The cells were automatically added the stimulating solution (HBSS supplemented with MES, final assay buffer pH5.8) by the FDSS 6000.
Target sequence in this assay (Q8NER1 whole entry, species assumed): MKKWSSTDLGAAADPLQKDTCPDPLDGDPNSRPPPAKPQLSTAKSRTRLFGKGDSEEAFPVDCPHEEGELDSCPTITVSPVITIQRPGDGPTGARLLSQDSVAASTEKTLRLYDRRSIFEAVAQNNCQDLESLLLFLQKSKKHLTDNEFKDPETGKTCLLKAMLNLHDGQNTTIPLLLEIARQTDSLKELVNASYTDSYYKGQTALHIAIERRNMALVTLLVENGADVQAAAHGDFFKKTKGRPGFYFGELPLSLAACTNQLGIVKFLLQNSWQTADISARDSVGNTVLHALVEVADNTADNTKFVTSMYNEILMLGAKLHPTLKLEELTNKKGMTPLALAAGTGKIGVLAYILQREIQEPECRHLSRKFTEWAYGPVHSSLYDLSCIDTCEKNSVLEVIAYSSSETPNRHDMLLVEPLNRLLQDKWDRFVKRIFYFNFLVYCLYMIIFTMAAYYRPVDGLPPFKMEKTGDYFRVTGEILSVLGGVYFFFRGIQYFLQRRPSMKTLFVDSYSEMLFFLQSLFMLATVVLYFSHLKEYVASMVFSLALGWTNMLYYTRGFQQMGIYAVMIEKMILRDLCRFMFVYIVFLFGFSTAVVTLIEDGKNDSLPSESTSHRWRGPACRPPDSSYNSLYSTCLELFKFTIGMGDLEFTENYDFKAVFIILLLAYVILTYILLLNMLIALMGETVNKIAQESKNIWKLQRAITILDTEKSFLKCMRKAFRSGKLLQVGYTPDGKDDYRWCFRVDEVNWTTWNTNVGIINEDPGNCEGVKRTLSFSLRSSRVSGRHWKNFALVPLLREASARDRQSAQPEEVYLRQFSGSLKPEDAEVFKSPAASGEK

The target of data set [2] is T1, VR1. As to the kind of experiment: Calcium uptake assay (Fura2, Flex Station) in HEK 293 cells expressing hVR1. Format: cell-based. Further details: expressed in transfected cells; host or cells: T-REx HEK 293 (Invitrogen), pcDNA5/TO vector, doxycycline induced. The following applies: for inhibition at 0.3 µM: HEK293, read-out: Low pH % Inhib. @ 0.3 μM; for inhibition of the Capsaicin induced intracellular calcium response (FIGS. 2-6): 3 nM compound, capsaicin as agonist, calcium uptake assay method. (Calcium flux is commonly read through the fluorescence of an indicator in the cells.)
Target sequence in this assay (Q8NER1 whole entry): as the sequence (Q8NER1 whole entry, species assumed) above

Data set [3] in a line: Half-life in human liver microsomes (HLM). Format: in vitro ADME. The following applies: human liver microsomes (HLM, HL101), pH 7.4, 1 μM compound, 0.78 mg/mL HLM, NADPH, 37° C. Here is the method:
Test compounds (1 μM) were incubated with 3.3 mM MgCl2 and 0.78 mg/mL HLM (HL101) in 100 mM potassium phosphate buffer (pH 7.4) at 37° C. on the 96-deep well plate. The reaction mixture was split into two groups, a non-P450 and a P450 group. NADPH was only added to the reaction mixture of the P450 group. An aliquot of samples of P450 group was collected at 0, 10, 30, and 60 min time point, where 0 min time point indicated the time when NADPH was added into the reaction mixture of P450 group. An aliquot of samples of non-P450 group was collected at −10 and 65 min time point. Collected aliquots were extracted with acetonitrile solution containing an internal standard. The precipitated protein was spun down in centrifuge (2000 rpm, 15 min). The compound concentration in supernatant was measured by LC/MS/MS system.
The half-life value was obtained by plotting the natural logarithm of the peak area ratio of compounds/internal standard versus time. The slope of the line of best fit through the points yields the rate of metabolism (k). […]
Exemplary compounds of the invention were tested (1 μM), and were incubated with 3.3 mM MgCl2 and 0.78 mg/mL HLM (HL101) in 100 mM potassium phosphate buffer (pH 7.4) at 37° C. on the 96-deep well plate. […] The compound concentration in supernatant was measured by LC/MS/MS system. […]

For another data set, the system named is VR1 receptor. The data set is described as follows: Calcium imaging assay in DRG neurons (Example 1). The following applies: 3 nM compound. Format: cell-based. Here is the method:
Therefore the functional activity of compounds at the VR1 receptor may be determined by measuring changes in intracellular calcium levels in neurons such as the dorsal root ganglion. […] Prior to assay, cells were loaded with 5 μg/ml Fura2 in normal saline solution at 37° C. for 40 minutes. Cells were then washed with normal saline to remove dye before commencement of the experiment. The plated neurons were transferred into a chamber on the stage of a Nikon eclipse TE300 microscope after which neurons were allowed to attain a stable fluorescence for about 10 minutes before beginning the experiment. The assay consists of two stages, a pretreatment phase followed by a treatment phase. First, a solution of the test compound was added from a multivalve perfusion system to the cells for 1 minute (pretreatment). […] Fura2 was excited at 340 and 380 nm to indicate relative calcium ion concentration. Changes in wavelength measurements were made throughout the course of the experiment. The fluorescence ratio was calculated by dividing fluorescence measured at 340 nm by that at 380 nm. Data were collected using Intelligent Imaging's Slidebook software.

Where [4] appears, read: 0.3 μM compound, low pH (protons) as agonist, HEK 293 cells expressing hVR1.

Broadly, the IC50 is the concentration that gives 50% inhibition. In general, half-life refers to how long it takes for the measured level to halve. High values mean slow loss, low ones fast loss.

The structures appear in SMILES notation.

With `O=C(Nc1ccc2c(c1)OCC(CO)O2)c1ccc(/C=C/C(F)(F)F)cc1` (single isomer, unassigned) [Compound 108], the IC50 on VR1 [1] was 5 nM.
`CC(C)(C)C#Cc1ccc(C(=O)Nc2cnc3ccccc3c2)cn1` [Compound 24]: on VR1 [2] (setting [4]), the inhibition at 0.3 µM was found to be 101%.
`O=C(Nc1cccc2cnccc12)c1ccc(C#CC(F)(F)F)cc1` [Compound 45]: the “inhibition of the Capsaicin induced intracellular calcium response (FIGS. 2-6)” value on VR1 [2] is given as “significant inhibition”.
Take `O=C1COc2ccc(NC(=O)c3ccc(/C=C/C(F)(F)F)cc3)cc2N1` [Compound 57]: the inhibition at 0.3 µM on VR1 [2] (setting [4]) amounted to 58%.
On the same count and under the same terms, for `CC1(C)Oc2ccc(NC(=O)c3ccc(/C=C/C(F)(F)F)cc3)cc2NC1=O` [Compound 58] the value was 19%.
In the case of `CN1CCC(C)(C)c2ccc(NC(=O)c3ccc(C#CC(C)(C)C)cc3)cc21` [Compound 59], on VR1 [2] (setting [4]), the inhibition at 0.3 µM is 83%.
Turning to `CC(C)(C)C#Cc1ccc(C(=O)Nc2cccc3cnccc23)cc1OCCN1CCOCC1` [Compound 60], on VR1 [2] (setting [4]), the inhibition at 0.3 µM worked out at 69%. Further, in data set [3], the half-life at 1 μM is 21 min.
Consider `O=C1COc2cc(NC(=O)c3ccc(/C=C/C(F)(F)F)cc3)ccc2N1` [Compound 61], for which the inhibition at 0.3 µM at VR1 [2] (setting [4]) was determined as 10%.
The same measure, in the same setting: for `O=C(Nc1ccc2c(c1)NCCO2)c1ccc(/C=C/C(F)(F)F)cc1` [Compound 62] the value was 14%.
On to `O=C(Nc1ccc2c(c1)OCCN2)c1ccc(/C=C/C(F)(F)F)cc1` [Compound 63], for which the inhibition at 0.3 µM on VR1 [2] (setting [4]) was determined as 123%. In addition, in data set [3], the half-life at 1 μM is 24 min.
Turning to `CC1(C)CNc2cc(NC(=O)c3ccc(/C=C/C(F)(F)F)cc3)ccc2O1` [Compound 64], on VR1 [2] (setting [4]), the inhibition at 0.3 µM stood at 10%.
With `O=C(Nc1ccc2c(c1)OCCN2)c1ccc(C#CC(F)(F)F)cc1` [Compound 70], the “Low pH % Inhib. @ 0.3 μM” value at VR1 [2] (setting [4]) was found to be 185%. For the same compound, the IC50 on VR1 [1] was determined as 5 nM.
In the case of `O=C(Oc1ccc2c(c1)OC(CO)CO2)c1ccc(C#CC2CC2)cc1` (stereo not drawn) [Compound 86], the inhibition at 0.3 µM on VR1 [2] (setting [4]) was determined as 83%.
The same measure, in the same setting: the result for `O=C(Oc1ccc2c(c1)OCC(CO)O2)c1ccc(C#CC2CC2)cc1` (stereo not drawn) [Compound 87] reads 98%.
Take `C/C(=C\C(F)(F)F)c1ccc(C(=O)Nc2ccc3c(c2)OCCN3)cc1` [Compound 96]: the “inhibition of the Capsaicin induced intracellular calcium response (FIGS. 2-6)” value at VR1 [2] is “significant inhibition”.
Regarding `Cc1cc2c(NC(=O)c3ccc(/C=C/C(F)(F)F)cc3)cccc2nn1` [Compound 113], the inhibition at 0.3 µM on VR1 [2] (setting [4]) amounted to 9%.
Consider `Cc1cc(C#CC(C)(C)C)ccc1C(=O)Nc1ccc2c(c1)OCC(CO)N2` (stereo not drawn) [Compound 167], for which the “inhibition of the Capsaicin induced intracellular calcium response (FIGS. 2-6)” value at VR1 [2] is “significant inhibition”.
Still for that read-out and setting: the result for `Cc1cc(/C=C/C(F)(F)F)ccc1C(=O)Nc1cnc2ccccc2c1` [Compound 187] reads “significant inhibition”.
As to `Cc1cc(/C=C/C(F)(F)F)ccc1C(=O)Nc1cnc2c(c1)OCC(O)CN2` (stereo not drawn) [Compound 189], at VR1 [2] (setting [4]), the inhibition at 0.3 µM stood at 87%.
For `Cc1cc(/C=C/C(F)(F)F)ccc1C(=O)Nc1ccc2sc(CO)nc2c1` [Compound 225], the “inhibition of the Capsaicin induced intracellular calcium response (FIG. 1)” value with VR1 receptor is listed as “significant inhibition”; in the data set on VR1 receptor (listed as compound 225) it was “reduced”. Further, the “% inhibition of capsaicin induced calcium influx” value with VR1 receptor (treatment time 20 sec, capsaicin 250 nM) is on record as >75%.
Take `Cc1cc(/C=C/C(F)(F)F)ccc1C(=O)NC1=CC2CNCCC2N=C1` (stereo not drawn) [Compound 229]: the inhibition at 0.3 µM at VR1 [2] (setting [4]) came to 54%.
On to `Cc1cc(/C=C/C(F)(F)F)ccc1C(=O)Nc1cnc2c(c1)OCC(CO)N2` (stereo not drawn) [Compound 233], for which the “inhibition of the Capsaicin induced intracellular calcium response (FIGS. 2-6)” value on VR1 [2] was “significant inhibition”.
